In patent US10787424B2, “Oxopiperazine helix mimetics for control of Hypoxia-Inducible gene expression” (NEW YORK UNIVERSITY, priority 2014, dated 2020):
Like-named read-outs stand apart in the source and are kept apart here. Each block holds one molecule with its values, some of them ahead of it.

What was measured:
[1] = tested on: HIF signaling; conditions: cell culture, at micromolar levels; earlier study; cited from earlier work
[2] = target: T1, human p300 CH1 domain (p300-CH1) (Homo sapiens, UniProt Q09472); assay: Tryptophan fluorescence binding assay for p300-CH1
T1 construct: human p300 CH1 domain (amino acid residues 323-423); GST (N, cleaved yes); made in house; host or cells: E. coli BL21(DE3)
T1 sequence (Q09472 323-423): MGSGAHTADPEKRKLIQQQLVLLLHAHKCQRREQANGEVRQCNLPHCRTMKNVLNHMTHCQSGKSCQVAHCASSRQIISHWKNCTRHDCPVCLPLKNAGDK
Description: The DNA sequence of the human p300 CH1 domain (amino acid residues 323-423) was subcloned into a pUC57 plasmid by Genscript, Inc. After transformation of JM109 bacteria (Promega) with the plasmid, it was amplified and purified. Then the gene of interest was subcloned between BamHI and EcoRI restriction sites of pGEX-4T-2 expression vector (Amersham).
The pGEX-4T-2-p300 fusion vector was transformed into BL21(DE3) competent E.coli (Novagen) in M9 minimal media with ^15NH4Cl as the primary nitrogen source. Protein production was induced with 1 mM IPTG at OD600 of 1 for 16 hours at 15° C. Production of the desired p300-CH1-GST fusion product was verified by SDS-PAGE. Bacteria were harvested and resuspended in the lysis buffer with 20 mM Phosphate buffer (Research Products International, Corp.), 100 μM DTT (Fisher), 100 μM ZnSO4 (Sigma), 0.5% TritonX 100 (Sigma), […] Pepstatin A (Research Products International, Corp.), […] Leupeptin A (Research Products International, Corp.), 500 μM PMSF (Sigma), and 0.5% glycerol at pH 8.0. Pellets were lysed by sonication and centrifuged at 4° C. and 20,000 rpm for 20 minutes. Fusion protein was collected from the bacterial supernatant and purified by affinity chromatography using glutathione Sepharose 4B beads (Amersham) prepared according to the manufacturer's directions. GST-tag was cleaved by thrombin and protein was eluted from resin. Collected fractions were assayed by SDS-PAGE gel; pooled fractions were treated with protease inhibitor cocktail (Sigma) and against a buffer containing 10 mM Tris, 50 mM NaCl, 2 mM DTT (Fisher), and 3 equivalents ZnSO4 at pH 8.0 to ensure proper folding (vide supra).
Relative affinities of OHMs for p300-CH1 were determined using a tryptophan fluorescence binding assay. Spectra were recorded on a QuantaMaster 40 spectrofluorometer (Photon Technology International) in a 10 mm quartz fluorometer cell at 25° C. with 4 nm excitation and 4 nm emission slit widths from 200 to 400 nm at intervals of 1 nm/s. Samples were excited at 295 nm and fluorescence emission was measured from 200-400 nm and recorded at 335 nm. OHM stock solutions were prepared in DMSO. Aliquots containing 1 μL DMSO stocks were added to 400 μL of 1 μM p300-CH1 in 50 mM Tris and 100 μM NaCl (pH 8.0). After each addition, the sample was allowed to equilibrate for 5 minutes before UV analysis. Background absorbance and sample dilution effects were corrected by titrating DMSO into p300-CH1 in an analogous manner. Final fluorescence is reported as the absolute value of [(F1-F0)/F1]*100, where F1 is the final fluorescence upon titration, and F0 is the fluorescence of the blank DMSO titration. EC50 values for each peptide were determined by fitting the experimental data to a sigmoidal dose-response nonlinear regression model in GraphPad Prism 5.0, and the dissociation constants, KD, were obtained from equation (2). KD=(RT×(1−FSB)+LST×FSB^2)/FSB−LST (2)
where: • RT=Total concentration of p300-CH1 • LST=Total concentration of fluorescent peptide • FSB=Fraction of bound fluorescent peptide Results and Discussion of Examples 1-8

[3] = tested on: triple-negative breast cancer cell line MDA-MB-231 xenograft; conditions: MDA-MB-231 mouse xenograft; earlier study; cited from earlier work
[4] = target: T2, p300-CH1 domain (Homo sapiens, UniProt Q09472); conditions: 15N-labeled CH1; earlier study; cited from earlier work
T2 construct: human p300 CH1 domain (amino acid residues 323-423); GST (N, cleaved yes); made in house; host or cells: E. coli BL21(DE3)
T2 sequence (Q09472 323-423): as above

[5] = tested on: over 28,000 transcripts (genome-wide off-target regulation); conditions: microarray gene expression profiling; earlier study; cited from earlier work
[6] = binding affinity for p300-CH1, intrinsic tryptophan fluorescence assay (Table 8), read-out: Kd

Structure (SMILES): CC(C)C[C@@H]1NCCN([C@@H](CC(C)C)C(=O)N2CCN([C@@H](CCC(N)=O)C(N)=O)C(=O)[C@@H]2C)C1=O [OHM 21, LLAQ-NH2]
downregulation of HIF signaling [1]: efficiently downregulated HIF signaling | Kd [2, 6]: 530 ± 140 nM | effect on tumor levels [3]: reduced tumor levels | HSQC resonance shifts on addition of compound [4]: consistent shifts in resonances of residues corresponding to the HIF1α816-824 binding pocket | specificity on genome-wide scale [5]: remarkably specific

Structure (SMILES): CCCC[C@@H](C(=O)N1CCN([C@@H](CCC(N)=O)C(N)=O)C(=O)[C@@H]1C)N1CCN[C@@H](CC(C)C)C1=O [OHM 23, L(Nle)AQ]
Kd [2, 6]: 30 ± 10 nM | Kd ([2]; cross-specificity, p300-CH1 (Table 9), read-out: p300 Kd): 30 ± 10 nM | enhancement in binding affinity over parent OHM 21 ([2]; p300, relative to OHM 21): 13 fold

Structure (SMILES): CC(C)CC[C@@H]1NCCN([C@@H](CCC(C)C)C(=O)N2CCN([C@@H](CCC(N)=O)C(N)=O)C(=O)[C@@H]2C)C1=O [OHM 25, (Hle)(Hle)AQ]
Kd [2, 6]: 160 ± 60 nM

The next lines start with the values.

Kd [2, 6]: > 10000 nM | Kd ([2]; p300-CH1, text value, read-out: Kd for p300-CH1): > 30000 nM
Structure (SMILES): CC(C)C[C@@H]1NCCN([C@@H](C)C(=O)N2CCN([C@@H](CCC(N)=O)C(N)=O)C(=O)[C@@H]2C)C1=O [OHM 22, LAAQ]

Kd [2, 6]: 620 ± 270 nM
Structure (SMILES): CC(C)C[C@@H]1NCCN([C@@H](CC(C)C)C(=O)N2CCN([C@@H](C)C(N)=O)C(=O)[C@@H]2C)C1=O [OHM 26]

Kd [2, 6]: > 10000 nM
Structure (SMILES): C[C@@H]1NCCN([C@@H](C)C(=O)N2CCN([C@@H](C)C(N)=O)C(=O)[C@@H]2C)C1=O [OHM 27]
